From US20100160454A1, “ANTIMICROBIAL AGENTS, COMPOSITIONS AND PRODUCTS CONTAINING THE SAME, AND METHODS OF USING THE COMPOSITIONS AND PRODUCTS” (Eastman Chemical Company, priority 2008, published 2010)

Legend:
[1] = tested on: Burkholderia cepacia ATCC 25416; test: Determination of MIC and MLC in test broth; type: cell-based; details: Burkholderia cepacia ATCC 25416, 30-day subculture
Procedure: (§1) Two antimicrobial endpoints were investigated. The minimum inhibitory concentration (MIC), which identifies the lowest concentration of test material at which growth for a specific organism is inhibited (by a minimum of 3 log units), reflects “biostatic activity”. The minimum lethal concentration (MLC), or lowest concentration that kills the organism and at which subculturing with growth is not possible, reflects “biocidal activity”. 1,4-CHDM and propylene glycol (PG) were added to previously sterilized screw-cap glass tubes and diluted with Peptone Water Broth with 2 wt % Dextrose (=test broth) to the following dilutions (weight percent): 0.05, 0.075, 0.125, 0.25, 0.5, 0.75, 1.25, 2.5, 5.0, 7.5, 10.0, 15.0, 20.0.
(§2) Each of 12 sets of the above test tubes were challenged with specific organisms (see Table 5) to produce a contamination of between 1.0×10^5 cfu/g and 1.0×10^6 cfu/g in the test broth to which no 1,4-CHDM or propylene glycol had been added. These challenge organisms were prepared in TSB broth, allowed to grow for 72 hours at 35° C.+/−2° C., centrifuged at 2500 rpm for 5 minutes, and the supernatant broth was removed. The microbial pellet was then re-diluted with sterile buffered water to a turbidity that matched previous 1.0×10^6 cfu/g concentrations of that organism's specific growth curve. This challenge was repeated on day 3. Plate counts of both challenges enumerated to within 1.0×10^5+/−5,000 cfu/g after 7 days incubation at 35° C.+/−2° C.
(§3) These tubes were mixed well by inversion (minimum of 25 inversions) and incubated at 35° C.+/−2° C. The tubes were inverted again (minimum of 25 times) on the third and seventh day of incubation and prior to each subculture.
(§4) These subcultures were incubated under optimal conditions and nutrition for no less than 5 days. Subcultures of 0.1 ml, undiluted and diluted 1:10, 1:100, . . . , and 1:10,000, were transferred to plates using the spread plate method onto Plate Count Agar; and SAB Dextrose Agar in addition for the Candida and Aspergillus species; and incubated as follows: 35° C.+/−2° C. for the Plate Count Agar and 22° C.+/−2° C. for the SAB Dextrose plates of Candida albicans and Aspergillus niger. Negative results were not reported before 7 days incubation and counts were performed after no less than 5 days incubation. Counts of Candida and Aspergillus species were made on the agar representing the highest count observed, usually the SAB Dextrose.

[2] = tested on: Proteus vulgaris; test: Determination of MIC and MLC in test broth; type: cell-based; details: 30-day subculture
Procedure: as §1, §2, §3, §4

[3] = tested on: Streptococcus faecalis; test: Determination of MIC and MLC in test broth; type: cell-based; details: 30-day subculture
Procedure: as §1, §2, §3, §4

[4] = tested on: Streptococcus pyogenes; test: Determination of MIC and MLC in test broth; type: cell-based; details: 30-day subculture
Procedure: as §1, §2, §3, §4

[5] = tested on: Aspergillus niger ATCC 16404; test: Determination of MIC and MLC in test broth; type: cell-based; details: Aspergillus niger ATCC 16404, 30-day subculture
Procedure: as §1, §2, §3, §4

[6] = tested on: Bacillus subtilis ATCC 6633; test: Determination of MIC and MLC in test broth; type: cell-based; details: Bacillus subtilis ATCC 6633, 30-day subculture
Procedure: as §1, §2, §3, §4

[7] = Water extraction of 1,4-CHDM from biodiesel, gas chromatography; type: physicochemical; details: soy biodiesel with theoretical 0.024 wt % CHDM, 0.90% water added, 3 days, centrifuged
Procedure: A solution of 59.5 wt % 1,4-CHDM in ethoxydiglycol (Eastman DE solvent) was prepared by weighing into a vial 1.36 g ethoxydiglycol and 2.00 g 1,4-CHDM. The mixture was heated to 55° C. to melt the 1,4-CHDM, mixed on a vortex mixer, then placed on a rocker mixer overnight at room temperature to allow all of the 1,4-CHDM to dissolve.
1,4-CHDM was added to soy biodiesel as follows: 60.00 g soy biodiesel was weighed into 4-oz jar. 0.0246 g of the above CHDM/DE solution was weighed into the biodiesel. The sample was mixed using a magnetic stirrer. There was no visible separation after mixing and the biodiesel remained clear. The theoretical amount of CHDM in the biodiesel is 0.024 wt %. 5.00 g was removed from the sample for analysis.
To make a biodiesel mixture containing 0.90% water, 0.50 g deionized water was added to the remaining 55.0 g 1,4-CHDM/DE/biodiesel mixture and mixed with a magnetic stirrer. The mixture became cloudy when stirred and also contained visible water droplets. The mixture was allowed to sit undisturbed for 3 days, during which time a white aqueous layer appeared on the bottom and the biodiesel (top layer) still remained cloudy. The mixture was centrifuged to separate as much water as possible from the biodiesel. […] The 1,4-CHDM/DE/biodiesel mixtures before and after water extraction and the bottom aqueous layer were analyzed by gas chromatography for 1,4-CHDM. […]

What does the source list for `CC(O)CO` (stereo not shown) [PG, propylene glycol]?
MIC 30 DAYS [1]: 10 wt %; MLC 30 DAYS [1]: >20 wt %; MIC 30 DAYS [2]: 20 wt %; MLC 30 DAYS [2]: >20 wt %; MIC 30 DAYS [3]: 20 wt %; MLC 30 DAYS [3]: >20 wt %; MIC 30 DAYS [4]: 20 wt %; MLC 30 DAYS [4]: >20 wt %; MIC 30 DAYS [5]: 20 wt %; MLC 30 DAYS [5]: >20 wt %; MIC 30 DAYS [6]: 10 wt %; MLC 30 DAYS [6]: >20 wt %

Which results are given for `OCC1CCC(CO)CC1` (stereo not shown) [1,4-CHDM, 1,4-cyclohexanedimethanol]?
MIC 30 DAYS [1]: 1.25 wt %; MLC 30 DAYS [1]: 20 wt %; MIC 30 DAYS [2]: 2.5 wt %; MLC 30 DAYS [2]: >20 wt %; MIC 30 DAYS [3]: 2.5 wt %; MLC 30 DAYS [3]: >20 wt %; MIC 30 DAYS [4]: 2.5 wt %; MLC 30 DAYS [4]: 20 wt %; MIC 30 DAYS [5]: 2.5 wt %; MLC 30 DAYS [5]: >20 wt %; MIC 30 DAYS [6]: 2.5 wt %; MLC 30 DAYS [6]: >20 wt %; 1,4-CHDM content of the aqueous bottom layer [7]: 0.38 wt %
